Laboratory results reported in ChEMBL document CHEMBL1201862, “PubChem BioAssay data set” (2004).
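Values below derive from 48-hour exposures of cells grown in 96-well plates, with endpoints linearly interpolated between the two concentrations bracketing the appropriate inhibition level. At the GI50, growth is halved.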 The source made the active and inactive calls. Rule as the data show it: active = GI50 up to about 1.1 µM and inactive = higher.

Key:
Experiment in all cases: DTP human tumour cell line panel, 48 h
CAKI-1 = tested on: CAKI-1
HT-29 = tested on: HT-29
A498 = tested on: A498
MDA-N = tested on: MDA-N
MOLT-4 = tested on: MOLT-4
TK-10 = tested on: TK-10
MDA-MB-435 = tested on: MDA-MB-435
MCF7 = tested on: MCF7
OVCAR-5 = tested on: OVCAR-5
CCRF-CEM = tested on: CCRF-CEM
HCC 2998 = tested on: HCC 2998
Hs-578T = tested on: Hs-578T
IGROV-1 = tested on: IGROV-1
MDA-MB-231 = tested on: MDA-MB-231
ACHN = tested on: ACHN
SF-295 = tested on: SF-295
NCI-H23 = tested on: NCI-H23
M14 = tested on: M14
SK-MEL-5 = tested on: SK-MEL-5
U-251 = tested on: U-251

SMILES	GI50 (CAKI-1)	GI50 (HT-29)	GI50 (A498)	GI50 (MDA-N)	GI50 (MOLT-4)	GI50 (TK-10)	GI50 (MDA-MB-435)	GI50 (MCF7)	GI50 (OVCAR-5)	GI50 (CCRF-CEM)	GI50 (HCC 2998)	GI50 (Hs-578T)	GI50 (IGROV-1)	GI50 (MDA-MB-231)	GI50 (ACHN)	GI50 (SF-295)	GI50 (NCI-H23)	GI50 (M14)	GI50 (SK-MEL-5)	GI50 (U-251)
Nc1cc(O)c2c(c1O)C(=O)C=CC2=O	18.6 µM (inactive)	4.55 µM (inactive)	22.2 µM (inactive)	6.1 µM (inactive)	4.66 µM (inactive)	26.6 µM (inactive)	6.1 µM (inactive)	7.13 µM (inactive)	20.8 µM (inactive)	2.19 µM (inactive)	9.31 µM (inactive)	26.5 µM (inactive)	15.2 µM (inactive)	13.6 µM (inactive)	12.3 µM (inactive)	17.3 µM (inactive)	8.99 µM (inactive)	7.76 µM (inactive)	8.26 µM (inactive)	18.2 µM (inactive)
O=C1C=CC(=O)c2c(O)c(N3CCN(c4ccccn4)CC3)cc(O)c21	8 µM (inactive)	4.3 µM (inactive)	34.4 µM (inactive)	2.41 µM (inactive)	4.22 µM (inactive)	34.7 µM (inactive)	0.851 µM (active)	3.11 µM (inactive)	46.5 µM (inactive)	3.07 µM (inactive)	8.73 µM (inactive)	16.1 µM (inactive)	10.1 µM (inactive)	13 µM (inactive)	6.89 µM (inactive)	17.5 µM (inactive)	3.4 µM (inactive)	3.29 µM (inactive)	1.77 µM (inactive)	5.64 µM (inactive)
O=C(c1ccccc1)N(CCCCNC(=O)C(F)(F)F)CCCNC(=O)C(F)(F)F	> 100 µM (inactive)	> 100 µM (inactive)	> 100 µM (inactive)	> 100 µM (inactive)	> 100 µM (inactive)	> 100 µM (inactive)	> 100 µM (inactive)	> 100 µM (inactive)	> 100 µM (inactive)	> 100 µM (inactive)	> 100 µM (inactive)	> 100 µM (inactive)	> 100 µM (inactive)	> 100 µM (inactive)	> 100 µM (inactive)	> 100 µM (inactive)	> 100 µM (inactive)	> 100 µM (inactive)	> 100 µM (inactive)	> 100 µM (inactive)
COc1ccc(OC2OC(CO)C(OCc3ccccc3)C(OCc3ccccc3)C2OCc2ccccc2)cc1 (stereo not given)	> 100 µM (inactive)	9.79 µM (inactive)	> 100 µM (inactive)	76 µM (inactive)	2.02 µM (inactive)	> 100 µM (inactive)	> 100 µM (inactive)	25.9 µM (inactive)	> 100 µM (inactive)	6.98 µM (inactive)	> 100 µM (inactive)	56.9 µM (inactive)	> 100 µM (inactive)	> 100 µM (inactive)	31.6 µM (inactive)	76.7 µM (inactive)	14.4 µM (inactive)	> 100 µM (inactive)	54.8 µM (inactive)	25.7 µM (inactive)
CCC/C(=N\NC(=S)N1CC2CCC(CC2)C1)c1ccccn1	1.21 µM (inactive)	0.0432 µM (active)	0.708 µM (active)	0.685 µM (active)	0.0179 µM (active)	0.977 µM (active)	0.585 µM (active)	0.042 µM (active)	0.649 µM (active)	0.0186 µM (active)	0.344 µM (active)	0.213 µM (active)	0.167 µM (active)	1.01 µM (active)	0.131 µM (active)	0.399 µM (active)	0.422 µM (active)	0.0929 µM (active)	0.117 µM (active)	0.181 µM (active)
